In patent publication US20250145665A1, “MACROCYCLIC PEPTIDES USEFUL AS MODULATORS OF TNF ALPHA” (Bristol-Myers Squibb Company, priority 2023, published 2025):
Starred links: 1 amine or outer side, 2 acyl side, 3 side chain; linkers in the order of their positions; H or OH if unused. Positions of bridges follow the written chain, without caps; N, C: chain ends. Non-standard residues stand in square brackets, D forms with d. Residues, ends and D or L forms follow the SMILES beside them. *: point of attachment. Bip(4'-NHCO-C6H4-4-CH2COOH) = N[C@@H](Cc1ccc(-c2ccc(NC(=O)c3ccc(CC(=O)O)cc3)cc2)cc1)C(=O)O; X5 = Cn1nc(C(=O)Nc2ccc(-c3ccc(C[C@H](N[*:1])C(=O)[*:2])cc3)cc2)c2ccccc21; dArg(Nω-CH2C6H4-3-CH2Gua) = N=C(N)NCc1cccc(CNC(=N)NCCC[C@@H](N)C(=O)O)c1; Bip(4'-NH) = O=C([C@H](Cc1ccc(-c2ccc(N[*:3])cc2)cc1)N[*:1])[*:2]; dArg(ω-Bn(3-CH2OH)) = N=C(NCCC[C@@H](N)C(=O)O)NCc1cccc(CO)c1; Bip(4'-COOH) = N[C@@H](Cc1ccc(-c2ccc(C(=O)O)cc2)cc1)C(=O)O; Bip(4'-NHAc) = CC(=O)Nc1ccc(-c2ccc(C[C@H](N)C(=O)O)cc2)cc1; X49 = O=C([C@H](Cc1ccc(-c2cccc(N[*:3])c2)cc1)N[*:1])[*:2]; Phe(4-(4-pyridyl)) = N[C@@H](Cc1ccc(-c2ccncc2)cc1)C(=O)O; Ala(imidazol-2-yl) = N[C@@H](Cc1ncc[nH]1)C(=O)O; Ala(morpholin-4-yl) = N[C@@H](CN1CCOCC1)C(=O)O; Phe(4-CH2NH2) = NCc1ccc(C[C@H](N)C(=O)O)cc1; Benzoyl(3-Ph) = O=C(c1cccc(-c2ccccc2)c1)*; Bip = N[C@@H](Cc1ccc(-c2ccccc2)cc1)C(=O)O; Phe(3-OMe) = COc1cccc(C[C@H](N)C(=O)O)c1; Phe(4-F) = N[C@@H](Cc1ccc(F)cc1)C(=O)O; Val(3-OH) = CC(C)(O)[C@H](N)C(=O)O; 2Pal = N[C@@H](Cc1ccccn1)C(=O)O; Tic = O=C(O)[C@@H]1Cc2ccccc2CN1; Cha = N[C@@H](CC1CCCCC1)C(=O)O; Tle = CC(C)(C)[C@H](N)C(=O)O; X50 = O=C(O)COc1ccccc1C(=O)*; Aze = O=C(O)[C@@H]1CCN1; Sar = CNCC(=O)O

Molecular target: TNFα (Homo sapiens, UniProt P01375)
Experiment: TNF-Induced HEK-Blue Assay
Format: cell-based
Settings: HEK-Blue-CD40L cells, NF-kB-driven secreted alkaline phosphatase reporter; TNFα 0.5 ng/ml; 18 h; read-out: TNF induced HEK-Blue assay IC50 value

Sequence of TNFα (P01375 77-233 limits assumed): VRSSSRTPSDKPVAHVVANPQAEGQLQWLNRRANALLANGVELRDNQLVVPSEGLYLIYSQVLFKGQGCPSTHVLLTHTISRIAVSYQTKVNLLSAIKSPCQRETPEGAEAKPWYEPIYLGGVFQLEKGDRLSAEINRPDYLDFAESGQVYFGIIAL

Compound | IC50 [nM]
CC(=O)Nc1ccc(-c2ccc(C[C@@H]3NC(=O)[C@H](CN4CCOCC4)NC(=O)CSC[C@@H](C(=O)NCC(N)=O)NC(=O)[C@H](C(C)C)NC(=O)[C@H](CCCNC(=N)N)NC(=O)[C@H](C(C)C)NC(=O)[C@@H]4CCCN4C(=O)[C@H](C(C)C)NC(=O)[C@@H](CCCNC(=N)N)NC(=O)[C@H](CC(=O)O)NC(=O)[C@@H]4CCCN4C(=O)CN(C)C(=O)[C@H](Cc4ccc(-c5ccccc5)cc4)NC3=O)cc2)cc1 [Example 85] ({CH2CO}-[Ala(morpholin-4-yl)][Bip(4'-NHAc)][Bip][Sar]PD[dR]VPVRVCG-NH2; thioether N-13) | 200 to 2000
COc1cccc(C[C@@H]2NC(=O)[C@H](C(C)C)NC(=O)[C@@H]3CCCN3C(=O)[C@H](C(C)C)NC(=O)[C@H](CCCNC(=N)N)NC(=O)[C@H](CC(=O)O)NC(=O)[C@@H]3CCCN3C(=O)CN(C)C(=O)[C@H](Cc3ccc(-c4ccccc4)cc3)NC(=O)[C@H](Cc3ccc(-c4ccccc4)cc3)NC(=O)[C@H](Cc3ccccc3)NC(=O)CSC[C@@H](C(=O)NCC(N)=O)NC(=O)[C@H](CC(C)C)NC2=O)c1 [Example 63] ({CH2CO}-F[Bip][Bip][Sar]PDRVPV[Phe(3-OMe)]LCG-NH2; thioether N-13) | 200 to 2000
CC[C@H](C)[C@@H]1NC(=O)[C@@H](CCCNC(=N)N)NC(=O)[C@H](CC(=O)O)NC(=O)[C@H](Cc2cnc[nH]2)NC(=O)CN(C)C(=O)[C@H](Cc2ccc(-c3ccc(NC(=O)c4cccc(-c5ccccc5)c4)cc3)cc2)NC(=O)[C@H](Cc2ccc(-c3ccccc3)cc2)NC(=O)[C@H](CC2CCCCC2)NC(=O)CSC[C@@H](C(=O)NCC(N)=O)NC(=O)[C@H](CC(C)C)NC(=O)[C@H](Cc2cnc[nH]2)NC(=O)[C@H](C(C)C)NC(=O)[C@@H]2CCCN2C1=O [Example 349] ({CH2CO}-[Cha][Bip][Bip(4'-NH)](Benzoyl(3-Ph))[Sar]HD[dR]IPVHLCG-NH2; thioether N-13) | 200 to 2000
CC(C)C[C@@H]1NC(=O)[C@H](CCCNC(=N)N)NC(=O)[C@H](C(C)C)NC(=O)[C@@H]2CCCN2C(=O)[C@H](C(C)C)NC(=O)[C@H](CCCNC(=N)N)NC(=O)[C@H](CC(=O)O)NC(=O)[C@@H]2Cc3ccccc3CN2C(=O)CN(C)C(=O)[C@H](Cc2ccc(-c3ccccc3)cc2)NC(=O)[C@H](Cc2ccc(-c3ccccc3)cc2)NC(=O)[C@H](Cc2ccccc2)NC(=O)CSC[C@@H](C(=O)NCC(N)=O)NC1=O [Example 45] ({CH2CO}-F[Bip][Bip][Sar][Tic]DRVPVRLCG-NH2; thioether N-13) | 200 to 2000
CC(C)C[C@@H]1NC(=O)[C@H](CCCNC(=N)N)NC(=O)[C@H](C(C)C)NC(=O)[C@@H]2CCCN2C(=O)[C@H](C(C)C)NC(=O)[C@@H](CCCNC(=N)NCc2cccc(CO)c2)NC(=O)[C@H](CC(=O)O)NC(=O)[C@@H]2CCCN2C(=O)CN(C)C(=O)[C@H](Cc2ccc(-c3ccc(NC(=O)c4nn(C)c5ccccc45)cc3)cc2)NC(=O)[C@H](Cc2ccc(-c3ccccc3)cc2)NC(=O)[C@H](CN2CCOCC2)NC(=O)CSC[C@@H](C(=O)NCC(N)=O)NC1=O [Example 448] ({CH2CO}-[Ala(morpholin-4-yl)][Bip][X5][Sar]PD[dArg(ω-Bn(3-CH2OH))]VPVRLCG-NH2; thioether N-13) | < 50
CC(C)C[C@@H]1NC(=O)[C@H](Cc2ccc(O)cc2)NC(=O)[C@H](C(C)C)NC(=O)[C@@H]2CCCN2C(=O)[C@H](CC(N)=O)NC(=O)[C@H](CCCNC(=N)N)NC(=O)[C@H](CC(=O)O)NC(=O)[C@H](Cc2ccc(O)cc2)NC(=O)CN(C)C(=O)[C@H](Cc2ccc(-c3ccccc3)cc2)NC(=O)[C@H](Cc2ccc(-c3ccccc3)cc2)NC(=O)[C@H](CN2CCOCC2)NC(=O)CSC[C@@H](C(=O)NCC(N)=O)NC1=O [Example 83] ({CH2CO}-[Ala(morpholin-4-yl)][Bip][Bip][Sar]YDRNPVYLCG-NH2; thioether N-13) | 50 to 200
CC(C)[C@@H]1NC(=O)[C@H](CCCNC(=N)N)NC(=O)[C@H](C(C)C)NC(=O)[C@@H]2CCCN2C(=O)[C@H](C(C)C)NC(=O)[C@H](CCCNC(=N)N)NC(=O)[C@H](CC(=O)O)NC(=O)[C@@H]2CCCN2C(=O)CN(C)C(=O)[C@H](Cc2ccc(-c3ccncc3)cc2)NC(=O)[C@H](Cc2ccc(-c3ccccc3)cc2)NC(=O)[C@H](CN2CCOCC2)NC(=O)CSC[C@@H](C(=O)NCC(N)=O)NC1=O [Example 91] ({CH2CO}-[Ala(morpholin-4-yl)][Bip][Phe(4-(4-pyridyl))][Sar]PDRVPVRVCG-NH2; thioether N-13) | 200 to 2000

The remaining lines, values ahead:

IC50 [nM] | Compound
50 to 200 | CC(C)C[C@@H]1NC(=O)[C@H](CCCNC(=N)N)NC(=O)[C@H](C(C)C)NC(=O)[C@@H]2CCCN2C(=O)[C@H](C(C)C)NC(=O)[C@@H](CCCNC(=N)N)NC(=O)[C@H](CC(=O)O)NC(=O)[C@@H]2CCCN2C(=O)CN(C)C(=O)[C@H](Cc2ccc(-c3cccc(NC(=O)c4ccccc4OCC(=O)O)c3)cc2)NC(=O)[C@H](Cc2ccc(-c3ccccc3)cc2)NC(=O)[C@H](CN2CCOCC2)NC(=O)CSC[C@@H](C(=O)NCC(N)=O)NC1=O [Example 327] ({CH2CO}-[Ala(morpholin-4-yl)][Bip][X49](X50)[Sar]PD[dR]VPVRLCG-NH2; thioether N-13)
50 to 200 | CC(=O)Nc1ccc(-c2ccc(C[C@@H]3NC(=O)[C@H](Cc4ccc(-c5ccc(C(=O)O)cc5)cc4)NC(=O)[C@H](C(C)(C)C)NC(=O)CSC[C@@H](C(=O)NCC(N)=O)NC(=O)[C@H](CC(C)C)NC(=O)[C@H](Cc4ccc(O)cc4)NC(=O)[C@H](C(C)C)NC(=O)[C@@H]4CCN4C(=O)[C@H](C(C)C)NC(=O)[C@@H](CCCNC(=N)N)NC(=O)[C@H](CC(=O)O)NC(=O)[C@@H]4CCCN4C(=O)CN(C)C3=O)cc2)cc1 [Example 266] ({CH2CO}-[Tle][Bip(4'-COOH)][Bip(4'-NHAc)][Sar]PD[dR]V[Aze]VYLCG-NH2; thioether N-13)
50 to 200 | CC(=O)Nc1ccc(-c2ccc(C[C@@H]3NC(=O)[C@H](Cc4ccc(-c5ccccc5)cc4)NC(=O)[C@H](CN4CCOCC4)NC(=O)CSC[C@@H](C(=O)NCC(N)=O)NC(=O)[C@H](CC(C)C)NC(=O)[C@H](CCCNC(=N)N)NC(=O)[C@H](C(C)(C)O)NC(=O)[C@@H]4CCCN4C(=O)[C@H](C(C)C)NC(=O)[C@@H](CCCNC(=N)N)NC(=O)[C@H](CC(=O)O)NC(=O)[C@@H]4CCCN4C(=O)CN(C)C3=O)cc2)cc1 [Example 160] ({CH2CO}-[Ala(morpholin-4-yl)][Bip][Bip(4'-NHAc)][Sar]PD[dR]VP[Val(3-OH)]RLCG-NH2; thioether N-13)
50 to 200 | CC(=O)Nc1ccc(-c2ccc(C[C@@H]3NC(=O)[C@H](Cc4ccc(-c5ccc(C(=O)O)cc5)cc4)NC(=O)[C@H](CC4CCCCC4)NC(=O)CSC[C@@H](C(=O)NCC(N)=O)NC(=O)[C@H](CC(C)C)NC(=O)[C@H](Cc4ccc(O)cc4)NC(=O)[C@H](C(C)C)NC(=O)[C@@H]4Cc5ccccc5CN4C(=O)[C@H](C(C)C)NC(=O)[C@@H](CCCNC(=N)N)NC(=O)[C@H](CC(=O)O)NC(=O)[C@@H]4CCCN4C(=O)CN(C)C3=O)cc2)cc1 [Example 275] ({CH2CO}-[Cha][Bip(4'-COOH)][Bip(4'-NHAc)][Sar]PD[dR]V[Tic]VYLCG-NH2; thioether N-13)
< 50 | CC(C)C[C@@H]1NC(=O)[C@H](Cc2ncc[nH]2)NC(=O)[C@H](C(C)C)NC(=O)[C@@H]2CCCN2C(=O)[C@H](C(C)C)NC(=O)[C@@H](CCCNC(=N)NCc2cccc(CNC(=N)N)c2)NC(=O)[C@H](CC(=O)O)NC(=O)[C@H](Cc2ccccn2)NC(=O)CN(C)C(=O)[C@H](Cc2ccc(-c3ccc(NC(=O)c4ccc(CC(=O)O)cc4)cc3)cc2)NC(=O)[C@H](Cc2ccc(-c3ccc(C(=O)O)cc3)cc2)NC(=O)[C@H](CC2CCCCC2)NC(=O)CSC[C@@H](C(=O)NCC(N)=O)NC1=O [Example 559] ({CH2CO}-[Cha][Bip(4'-COOH)][Bip(4'-NHCO-C6H4-4-CH2COOH)][Sar][2Pal]D[dArg(Nω-CH2C6H4-3-CH2Gua)]VPV[Ala(imidazol-2-yl)]LCG-NH2; thioether N-13)
50 to 200 | CC(=O)Nc1ccc(-c2ccc(C[C@@H]3NC(=O)[C@H](Cc4ccc(-c5ccccc5)cc4)NC(=O)[C@H](CN4CCOCC4)NC(=O)CSC[C@@H](C(=O)NCC(N)=O)NC(=O)[C@H](CC(C)C)NC(=O)[C@H](Cc4ccc(O)cc4)NC(=O)[C@H](C(C)C)NC(=O)[C@@H]4CCCN4C(=O)[C@H](Cc4ccc(O)cc4)NC(=O)[C@@H](CCCNC(=N)N)NC(=O)[C@H](CC(=O)O)NC(=O)[C@H](Cc4ccccn4)NC(=O)CN(C)C3=O)cc2)cc1 [Example 177] ({CH2CO}-[Ala(morpholin-4-yl)][Bip][Bip(4'-NHAc)][Sar][2Pal]D[dR]YPVYLCG-NH2; thioether N-13)
< 50 | CC[C@H](C)[C@@H]1NC(=O)[C@@H](CCCNC(=N)N)NC(=O)[C@H](CC(=O)O)NC(=O)[C@H](Cc2cnc[nH]2)NC(=O)CN(C)C(=O)[C@H](Cc2ccc(-c3ccc(NC(=O)c4ccc(CC(=O)O)cc4)cc3)cc2)NC(=O)[C@H](Cc2ccc(-c3ccccc3)cc2)NC(=O)[C@H](CC2CCCCC2)NC(=O)CSC[C@@H](C(=O)NCC(N)=O)NC(=O)[C@H](CC(C)C)NC(=O)[C@H](Cc2cnc[nH]2)NC(=O)[C@H](C(C)C)NC(=O)[C@@H]2CCCN2C1=O [Example 445] ({CH2CO}-[Cha][Bip][Bip(4'-NHCO-C6H4-4-CH2COOH)][Sar]HD[dR]IPVHLCG-NH2; thioether N-13)
50 to 200 | CC(C)C[C@@H]1NC(=O)[C@H](CCCNC(=N)N)NC(=O)[C@H](C(C)C)NC(=O)[C@@H]2CCCN2C(=O)[C@H](Cc2ccc(F)cc2)NC(=O)[C@H](CCCNC(=N)N)NC(=O)[C@H](CC(=O)O)NC(=O)[C@@H]2CCCN2C(=O)CN(C)C(=O)[C@H](Cc2ccc(-c3ccccc3)cc2)NC(=O)[C@H](Cc2ccc(-c3ccccc3)cc2)NC(=O)[C@H](C(C)(C)O)NC(=O)CSC[C@@H](C(=O)NCC(N)=O)NC1=O [Example 58] ({CH2CO}-[Val(3-OH)][Bip][Bip][Sar]PDR[Phe(4-F)]PVRLCG-NH2; thioether N-13)
50 to 200 | CC(C)C[C@@H]1NC(=O)[C@H](CCCNC(=N)N)NC(=O)[C@H](C(C)C)NC(=O)[C@@H]2CCCN2C(=O)[C@H](Cc2ccc(CN)cc2)NC(=O)[C@H](CCCNC(=N)N)NC(=O)[C@H](CC(=O)O)NC(=O)[C@@H]2CCCN2C(=O)CN(C)C(=O)[C@H](Cc2ccc(-c3ccccc3)cc2)NC(=O)[C@H](Cc2ccc(-c3ccccc3)cc2)NC(=O)[C@H](C(C)(C)O)NC(=O)CSC[C@@H](C(=O)NCC(N)=O)NC1=O [Example 57] ({CH2CO}-[Val(3-OH)][Bip][Bip][Sar]PDR[Phe(4-CH2NH2)]PVRLCG-NH2; thioether N-13)
